Patent US20210263039A1, “APPLICATION OF NIEMANN-PICK C1 PROTEIN IN DIAGNOSIS AND TREATMENT OF CANCER” (BEIJING PROTEOME RESEARCH CENTER, priority 2018, published 2021)
Several values for one entry are separate records, joined by “and”; a condition that tells them apart may be missing. Identical values can stand only once.

How the values were obtained:
[1] = liver cancer patients; cited from earlier work
[2] = system: HepG2 liver cancer cell line; test: CCK8 proliferation experiment, HepG2; assay type: cell-based, human; conditions: inhibitor 10 μM and 20 μM groups vs 1‰ DMSO, OD 450 nm at 0-72 h
Description: (§1) 1) On the first day, PLC/PRF/5 or HepG2 cells were seeded onto a 6-well plate.
(§2) 2) On the second day, when the cell confluence was about 40-50%, NPC1-sh or NPC1-control lentivirus was added at 200 μl/well for virus infection.
(§3) 3) On the third day, puromycin was added to infected PLC/PRF/5 or HepG2 cells to a final concentration of 2 μg/mL for selection.
(§4) 4) On the sixth day, part of the cells was collected according to the conventional method for CCK8 experiment, and part of the cells were lysed to obtain proteins and subjected to Western blotting. […]
(§5) 2) On the second day, after about 24 hours of culture, the cell growth was in the logarithmic growth phase and the culture medium was replaced with a new culture medium with different concentrations of SOAT1 inhibitor in a volume of 100 μL/well. […] 10% CCK8 (100 μL/well) was added to the wells of one 96-well plate, and OD value of 0 h was measured at 450 nm after 1 h, with cell-free wells as background.
(§6) 3) On the third day, 10% CCK8 was added to the wells of one 96-well plate and OD value of 24 h was measured at 450 nm after 1 h.
(§7) 4) On the fourth day, 10% CCK8 was added to the wells of one 96-well plate and OD value of 48 h was measured at 450 nm after 1 h.
(§8) 5) On the fifth day, 10% CCK8 was added to the wells of the last 96-well plate and OD value of 72 h was measured at 450 nm after 1 h. […]

[3] = system: PLC/PRF/5 liver cancer cell line; test: CCK8 proliferation experiment, PLC/PRF/5; assay type: cell-based, human; conditions: inhibitor 10 μM and 20 μM groups vs 1‰ DMSO, OD 450 nm at 0-72 h
Description: as §1, §2, §3, §4, §5, §6, §7, §8

[4] = system: MHCC97H liver cancer cell line; test: CCK8 proliferation experiment, MHCC97H; assay type: cell-based, human; conditions: inhibitor 10 μM and 20 μM groups vs 1‰ DMSO, OD 450 nm at 0-72 h
Description: (§9) 1) On the first day, after routine trypsinization and counting of cells in a 60 mm culture dish, the cells were seeded onto four 96-well plates at a density of 5000 cells/well.
(§10) 2) On the second day, after about 24 hours of culture, the cell growth was in the logarithmic growth phase and the culture medium was replaced with a new culture medium with different concentrations of SOAT1 inhibitor in a volume of 100 μL/well. 10 μM group, 20 μM group and control group (1‰ DMSO) were set, each group included three repeated wells. 10% CCK8 (100 μL/well) was added to the wells of one 96-well plate, and OD value of 0 h was measured at 450 nm after 1 h, with cell-free wells as background.
as §6, §7
(§11) 5) On the fifth day, 10% CCK8 was added to the wells of the last 96-well plate and OD value of 72 h was measured at 450 nm after 1 h.
(§12) 6) OD values at all time points were summarized and a growth curve was drawn.

[5] = system: Huh7 liver cancer cell line; test: CCK8 proliferation experiment, Huh7; assay type: cell-based, human; conditions: inhibitor 10 μM and 20 μM groups vs 1‰ DMSO, OD 450 nm at 0-72 h
Description: as §9, §10, §6, §7, §11, §12

[6] = system: cervical cancer cell line Hela; test: CCK8 proliferation experiment, Hela; assay type: cell-based, human
Description: as §9, §10, §6, §7, §11, §12

[7] = system: colon cancer cell line HCT116; test: CCK8 proliferation experiment, HCT116; assay type: cell-based, human
Description: as §9, §10, §6, §7, §11, §12

[8] = system: non-small cell lung cancer cell line A549; test: CCK8 proliferation experiment, A549; assay type: cell-based, human
Description: as §9, §10, §6, §7, §11, §12

[9] = system: esophageal cancer cell line ECA109; test: CCK8 proliferation experiment, ECA109; assay type: cell-based, human
Description: as §9, §10, §6, §7, §11, §12

[10] = system: leukemia cell line Jurkat; test: CCK8 proliferation experiment, Jurkat; assay type: cell-based, human
Description: as §9, §10, §6, §7, §11, §12

[11] = system: human hepatocarcinoma HepG2 liver orthotopic transplantation tumors; test: Liver orthotopic transplantation tumors in nude mice bearing human hepatocarcinoma HepG2 cells; assay type: in vivo
Description: A total of 30 female Nu/Nu nude mice aged 5-7 weeks and weighing 18.0-21.0 g were purchased from Beijing Vital River Laboratory Animal Technology Co., Ltd., animal certificate was SCXK (JING)-2015-0001. The test animals were kept in sterile independent ventilation cages (IVC), with 5-6 mice per cage. The litter was corncob litter sterilized by ^60Co radiation, with a particle size of 4-6 mm. The animals were fed with sterilized feed specially formulated for mice and were given pure water to drink freely. The temperature in the animal laboratory was maintained at about 25° C., the relative humidity was maintained at 40-70%, and the daily light was 12 hours.
The cells in the logarithmic growth phase were digested with trypsin and collected, washed and resuspended with normal saline, so that the final cell concentration was about 1×10^7 cells/ml suspension. 0.2 ml of tumor cell suspension was injected under the skin of the right forelimb axillary in nude mice, and the tumor-bearing nude mice were established for passage and preservation.
When the subcutaneous tumor volume of the nude mice for preservation grew to 1000-1500 mm^3, tumors were removed and cut into tumor blocks of about 1.0 mm^3 for use under aseptic conditions. The nude mice to be operated were anesthetized and fixed on the operating table, and the abdominal skin was disinfected. An incision of about 1 cm was made in the upper right abdomen to expose the liver and the animal was covered with surgical drapes. The prepared tumor block was put into a special inoculation trocar, the tumor block was implanted into the liver with the trocar, and the bleeding wound was treated with a sterile cotton swab to stop bleeding. Then the liver after the operation was put back into the abdominal cavity of the mouse, and the abdominal muscles and skin of the incision were sutured sequentially with No. 4/0 surgical suture needle.
The experiment preset model control group and U18666A group.
Model animals were examined by B-ultrasound 3 weeks after operation, and grouped randomly according to B-ultrasound results. The test drug U18666A was administered intraperitoneally, once a day.
After the experiment, the animals were sacrificed by cervical dislocation. The liver was dissected, and the tumors visible to the naked eye were removed and weighed. All dissected tissues were preserved in a 4% formaldehyde solution for routine pathological examination.
Data were represented as x±SD; Tumor growth inhibition rate=(tumor weight in the control group−tumor weight in the administration group)/tumor weight in the control group×100%. All analyses were completed with GrghPad Prism software, and P<0.05 was considered to indicate a significant difference.

[12] = system: plasma membrane cholesterol; test: Filipin III-based cholesterol staining of the plasma membrane; assay type: cell-based
Description: (§13) Reagents: Cholesterol Cell-Based Detection Assay Kit (No10009779) was purchased from Cayman. Human sIL6R ELISA kit (BMS214) was purchased from ebioscience. The relevant experiments were conducted according to the instructions.

IL6R = test: sIL6R ELISA, shedding of IL6R from the cell membrane; assay type: cell-based
Description: as §13

STAT3 signaling pathway = STAT3 signaling pathway activation after IL6 stimulation (STAT3-Y705 antibody); assay type: cell-based
Description: The conventional western blotting method was adopted.
STAT3-Y705 (EP2147Y) antibody was purchased from Abcam.

liver cancer cells = test: Migration of liver cancer cells; assay type: cell-based

Row | Compound | prolongation of the survival period of patients [1] [months] | proliferation of liver cancer cells (CCK8 growth curve) [2] | proliferation of liver cancer cells (CCK8 growth curve) [3] | proliferation of liver cancer cells (CCK8 growth curve) [4] | proliferation of liver cancer cells (CCK8 growth curve) [5] | proliferation of common cancer cell lines [6] | proliferation of common cancer cell lines [7] | proliferation of common cancer cell lines [8] | proliferation of common cancer cell lines [9] | proliferation of common cancer cell lines [10] | Average weight (g) Begining ([11]; body weight at beginning, nude mice, x±SD) [g] | Average weight (g) End ([11]; body weight at end, i.p., 20 mg/kg, once a day, 23 days, x±SD) [g] | Tumor growth inhibition rate (%) ([11]; by tumor weight vs control group, i.p., 20 mg/kg, once a day, 23 days) | Tumor weight ([11]; group mean x±SD, i.p., 20 mg/kg, once a day, 23 days) [g] | Tumor weight (g), individual tumors ([11]; single animals of the group, i.p., 20 mg/kg, once a day, 23 days, 20 mg/kg) | plasma membrane cholesterol [12] | shedding of IL6R receptor on the cell membrane (IL6R) | activation of STAT3 signaling pathway (STAT3 signaling pathway) | migration of liver cancer cells (liver cancer cells)
1 | CNC(=O)c1cc(Oc2ccc(NC(=O)Nc3ccc(Cl)c(C(F)(F)F)c3)cc2)ccn1 [Sorafenib] | 3 | – | – | – | – | – | – | – | – | – | – | – | – | – | – | – | – | – | –
2 | CCN(CC)CCO[C@H]1CC[C@@]2(C)C(=CC[C@@H]3[C@@H]2CC[C@]2(C)C(=O)CC[C@@H]32)C1.Cl [U18666A] | – | significantly inhibit the proliferation | significantly inhibit the proliferation | significantly inhibit the proliferation | significantly inhibit the proliferation | significantly inhibited the proliferation | significantly inhibited the proliferation | significantly inhibited the proliferation | significantly inhibited the proliferation | significantly inhibited the proliferation | 23.74 ± 0.86 | 23.34 ± 2.29 | 62.1 | 0.3574 ± 0.3914 | 0.0333 g and 0.0916 g and 0.0957 g and 0.0958 g and 0.1653 g and 0.3852 g and 0.5450 g and 0.5512 g and 1.2533 g | significantly down-regulated | increased shedding | blocked | significantly inhibit
